Assay results reported in the supplement of paper PMC13380429.

Columns and labels:
Conditions in all cases: 72 h
HepG2 [1] = test: drug sensitivity score (DSS) for viability; higher = more toxic; extreme values may be limits of the assay
Vero E6 [2] = test: as above
Caco-2 [3] = test: as above
Calu-3 [4] = test: as above
U2OS [5] = test: as above
HepG2 [6] = test: cell viability relative to DMSO; higher = less toxic
Vero E6 [7] = test: as above
Caco-2 [8] = test: as above
Calu-3 [9] = test: as above
U2OS [10] = test: as above
HepG2 [11] = test: relative viability EC50 (midpoint between 100% and the lowest measured viability); higher = less toxic
Vero E6 [12] = test: as above
Caco-2 [13] = test: as above
Calu-3 [14] = test: as above
U2OS [15] = test: as above

Structure (SMILES) | drug sensitivity score (HepG2 [1]) | drug sensitivity score (Vero E6 [2]) | drug sensitivity score (Caco-2 [3]) | drug sensitivity score (Calu-3 [4]) | drug sensitivity score (U2OS [5]) | cell viability (HepG2 [6]; 1 nM) | cell viability (HepG2 [6]; 10 nM) | cell viability (HepG2 [6]; 100 nM) | cell viability (HepG2 [6]; 1000 nM) | cell viability (HepG2 [6]; 10000 nM) | cell viability (Vero E6 [7]; 1 nM) | cell viability (Vero E6 [7]; 10 nM) | cell viability (Vero E6 [7]; 100 nM) | cell viability (Vero E6 [7]; 1000 nM) | cell viability (Vero E6 [7]; 10000 nM) | cell viability (Caco-2 [8]; 1 nM) | cell viability (Caco-2 [8]; 10 nM) | cell viability (Caco-2 [8]; 100 nM) | cell viability (Caco-2 [8]; 1000 nM) | cell viability (Caco-2 [8]; 10000 nM) | cell viability (Calu-3 [9]; 1 nM) | cell viability (Calu-3 [9]; 10 nM) | cell viability (Calu-3 [9]; 100 nM) | cell viability (Calu-3 [9]; 1000 nM) | cell viability (Calu-3 [9]; 10000 nM) | cell viability (U2OS [10]; 1 nM) | cell viability (U2OS [10]; 10 nM) | cell viability (U2OS [10]; 100 nM) | cell viability (U2OS [10]; 1000 nM) | cell viability (U2OS [10]; 10000 nM) | relative viability EC50 (HepG2 [11]) | relative viability EC50 (Vero E6 [12]) | relative viability EC50 (Caco-2 [13]) | relative viability EC50 (Calu-3 [14]) | relative viability EC50 (U2OS [15])
Nc1n[nH]c2nc3ccccc3nc12 [CDK1-5-inhibitor] | 0 | 0 | 0 | 1.4 | 0 | 102% | 98.6% | 107% | 101% | 104% | 99.8% | 96.1% | 100% | 100% | 97.4% | 101% | 105% | 97.8% | 96.2% | 104% | 98.3% | 102% | 97.1% | 86% | 90.6% | 86.3% | 95.2% | 95.9% | 100% | 102% | > 10 µM | > 10 µM | > 10 µM | > 10 µM | > 10 µM
COc1c2ccoc2cc2oc(=O)ccc12 [bergapten] | 0 | 0.6 | 0 | 0 | 0 | 95.7% | 85.8% | 90% | 102% | 96.3% | 103% | 105% | 99.8% | 98.4% | 82% | 82.4% | 94.1% | 94.3% | 99.4% | 88.3% | 105% | 119% | 108% | 103% | 99% | 95.4% | 106% | 93.2% | 97.4% | 102% | > 10 µM | > 10 µM | > 10 µM | > 10 µM | > 10 µM
O=C(Nc1cc(Cl)cc(Cl)c1O)c1c(O)c(Cl)cc(Cl)c1Cl [oxyclozanide] | 0 | 0 | 0 | 0 | 0 | 105% | 99.2% | 96.4% | 98% | 101% | 95% | 98.6% | 96.2% | 101% | 95.4% | 98.4% | 106% | 91.7% | 91.9% | 97.4% | 107% | 90.4% | 104% | 88.7% | 103% | 98.7% | 97.6% | 97.8% | 100% | 97.2% | > 10 µM | > 10 µM | > 10 µM | > 10 µM | > 10 µM
CSc1ccc([C@H]2CN3CCC[C@H]3c3ccccc32)cc1 (racemic) [McN-5652-(+/-)] | 0 | 0 | 0 | 0 | 0 | 102% | 89.9% | 98.5% | 90.3% | 105% | 99.6% | 102% | 102% | 96.3% | 104% | 92.2% | 100% | 96.1% | 103% | 98.7% | 102% | 101% | 106% | 84.9% | 105% | 97.8% | 105% | 96.8% | 105% | 102% | > 10 µM | > 10 µM | > 10 µM | > 10 µM | > 10 µM
Cc1ccc(CC2(O)CCN(CCOc3ccc(O)cc3)CC2)cc1 | 1 | 0 | 0 | 0 | 0 | 100% | 90.4% | 108% | 90.3% | 84.6% | 103% | 101% | 99.4% | 99.6% | 93.1% | 103% | 101% | 95.5% | 91.7% | 92.2% | 110% | 96.5% | 91.7% | 95.9% | 96.9% | 100% | 96.8% | 97.8% | 97.1% | 99.7% | > 10 µM | > 10 µM | > 10 µM | > 10 µM | > 10 µM
CC(=O)OCC(=O)[C@H]1CC[C@H]2[C@@H]3CCC4=CC(=O)CC[C@]4(C)[C@H]3CC[C@]12C [deoxycorticosterone-acetate] | 0 | 0 | 0 | 0 | 0 | 107% | 110% | 95.9% | 91.5% | 107% | 100% | 99.8% | 96.2% | 98.7% | 91.7% | 85.4% | 114% | 100% | 122% | 101% | 98.4% | 99.8% | 100% | 91.9% | 107% | 96.8% | 100% | 103% | 102% | 99.2% | > 10 µM | > 10 µM | > 10 µM | > 10 µM | > 10 µM
Cc1ccc(-c2cn3c4c(sc3n2)CCCC4)cc1 [pifithrin-cyclic] | 0 | 0 | 0 | 0 | 0 | 105% | 99.1% | 105% | 108% | 91.7% | 119% | 96.5% | 109% | 102% | 97.1% | 104% | 93% | 91.2% | 105% | 92.9% | 98.3% | 105% | 100% | 109% | 107% | 102% | 101% | 101% | 102% | 98.5% | > 10 µM | > 10 µM | > 10 µM | > 10 µM | > 10 µM
